# Results: patent US11673927B2, “Antitumor agent targeting HGF-regulated tyrosine kinase substrate (HGS)” (TOKYO METROPOLITAN INSTITUTE OF MEDICAL SCIENCE, priority 2018, dated 2023)
# Legend:
# mouse melanoma B16 cells [1] = assay: Experimental lung metastasis inhibition test; assay type: in vivo, C57BL/6 mice; settings: B16 cells incubated with 40 nmol oligopeptide 2 hours, tail vein, colonies counted after 28 days, versus vehicle
# Protocol: The metastasis inhibitory effect of OP12-462 on the experimental lung metastasizing ability of mouse melanoma B16 cells was examined.
# First, a PBS solution (0.2 ml PBS) of mouse melanoma B16 cells (1E+5 cells) and the test oligopeptide (OP12-462) (40 nmol) was incubated at 37° C. for 2 hours. After incubation, this solution was administered to C57BL/6 mice (female) in the tail vein. The number of B16 cell metastatic tumor colonies in the mouse lung was counted 28 days after the tail vein administration of B16 cells. The ability of the oligopeptide OP12-462 to inhibit metastasis was quantified as the relative ratio of the number of the tumor colonies treated with the oligopeptide to the number of tumor colonies of B16 cells untreated with the oligopeptide.
# As was in the above “1. (3)”, an experimental lung metastasis inhibition test was conducted on the oligopeptide OP12-462 and the OP12-462 alanine substituted peptides.
# [2] = test system: B16 cells or COLO 205 cells; assay: In vitro anchorage-independent growth inhibition test of OP12-462 alanine substituted peptides; assay type: cell-based; settings: compared with the sample untreated with an oligopeptide (vehicle) or with OP12-462, FIG. 5
# Text: (§1) In the present example, the Ultra-Low Attachment Surface Corning Costar 96 Well Cell Culture Plate 3474 (Corning) was used as an Ultra-Low Attachment Surface (ULAS) plate, and Tissue Culture Treated Corning Costar 96 Well Cell Culture Plate 3595 (Corning) was used as a normal plate.
# (§2) As cells, mouse melanoma B16 cells and human colorectal cancer-derived COLO 205 cells were used, and Cell Counting Kit-8 (Dojindo Laboratories) was used to evaluate cell growth.
# (§3) B16 cells or COLO 205 cells (2E+3 cells/0.2 ml Opti-MEM medium, 5% FBS/well) were seeded in each well of the ULAS plate and normal plate. The test oligopeptides (OP12-462, OP10-507 and OP10-527) (0, 0.16, 0.4, 8 nmol) were each added and cultured at 37° C.
# (§4) After 7 days, 0.1 ml of Cell Counting Kit-8 solution (5-fold PBS diluted solution) was added, and the absorbance A450 nm was immediately measured and set as the TO blank value.
# (§5) After incubating at 37° C. for 2 hours, the absorbance A450 nm was measured again and set as T2. The change=T2−T0 was defined as the anchorage-independent growth activity value or the anchorage-dependent growth activity value. The cell growth activity when adding a test oligopeptide was quantified as the relative ratio to the cell growth activity when no test oligopeptide was added.
# As was in the above “1. […]
# COLO 205 cells = assay: In vivo Xenograft test; set-up: species or system BALB/c Slc-nu/nu nude mice; settings: for tumor growth inhibitory effect compared with OP12-462, OP10-507 and OP10-527: COLO 205 xenograft, same method as Example 2 1.(2), FIGS. 6A to 6C; for tumor growth of COLO 205 cells (tumor volume): nude mice, 5 mg/kg body weight, tail vein, once daily Day 0 to Day 9, versus PBS
# Protocol: COLO 205 cells (1E+6 cells/0.2 ml PBS) were inoculated subcutaneously into the back of BALB/c Slc-nu/nu nude mice (female) (n=5 or 6). The day after 10 days was set as Day 0, and PBS or the test oligopeptides (OP12-462, OP10-507 and OP10-527) (5 mg/kg body weight) was administered as a 0.2 ml PBS solution in the tail vein once daily for 10 days from Day 0 to Day 9. The size of the tumor formed was measured once daily from Day 0. The tumor volume was estimated by measuring the minor axis and major axis of the tumor (tumor volume=(semi-minor axis×semi-minor axis×semi-major axis×π)/6).
# With the same method as in the above “[Example 2] 1. (2)”, the tumor growth inhibitory ability was evaluated for OP10-7, OP10-10 and OP10-11, which are typical examples of conventional HGS/C constituent oligopeptides.
# [3] = target: T1, GST-labeled HGS (Human) Recombinant Protein (Homo sapiens, UniProt O14964); assay: SPR interaction screening with immobilized GST-labeled HGS; assay type: binding; settings: ProteOn XPR36, GST value as blank
# T1 construct: purchased Abnova
# Protocol: (§6) Specifically, Glutathione S-transferase (GST)-labeled HGS (Human) Recombinant Protein (Abnova), GST-labeled STAM (Human) Recombinant Protein (Abnova), or GST (Abnova) was immobilized on a ProteOn™ GLH sensor chip.
# (§7) The interactions between the HGS/C constituent oligopeptides and these immobilized proteins were measured using the ProteOn™ XPR36 interaction array system (Bio-Rad). Using the GST value as a blank value, the dissociation rate constants (Kd) of the HGS/C-constituent oligopeptides with each of GST-labeled HGS and GST-labeled STAM were measured.
# [4] = target: T2, GST-labeled STAM (Human) Recombinant Protein (Homo sapiens, UniProt Q92783); assay: SPR interaction screening with immobilized GST-labeled STAM; assay type: binding; settings: ProteOn XPR36, GST value as blank
# T2 construct: purchased Abnova
# T2 sequence (Q92783 1-540): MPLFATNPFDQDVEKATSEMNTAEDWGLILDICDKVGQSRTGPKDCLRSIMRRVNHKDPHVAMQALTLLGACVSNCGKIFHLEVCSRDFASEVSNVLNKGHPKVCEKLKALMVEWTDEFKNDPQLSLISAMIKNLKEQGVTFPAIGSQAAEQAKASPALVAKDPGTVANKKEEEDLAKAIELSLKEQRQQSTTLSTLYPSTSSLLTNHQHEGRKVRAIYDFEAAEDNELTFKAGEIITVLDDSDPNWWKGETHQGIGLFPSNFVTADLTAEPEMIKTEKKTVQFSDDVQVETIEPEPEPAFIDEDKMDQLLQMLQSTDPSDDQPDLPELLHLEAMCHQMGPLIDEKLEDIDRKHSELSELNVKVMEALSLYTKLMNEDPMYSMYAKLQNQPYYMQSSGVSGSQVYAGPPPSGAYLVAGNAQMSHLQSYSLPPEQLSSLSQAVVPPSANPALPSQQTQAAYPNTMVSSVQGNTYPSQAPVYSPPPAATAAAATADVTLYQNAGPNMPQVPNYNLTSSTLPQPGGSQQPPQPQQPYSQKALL
# Protocol: as §6, §7
# [5] = test system: human colorectal cancer-derived COLO 205 cells; assay: In vitro anchorage-dependent growth inhibition test (normal plate), COLO 205; assay type: cell-based; settings: normal plate, 0, 0.16, 0.4, 8 nmol, 7 days, FIG. 2B
# Text: (§8) Cancer cells proliferate in an anchorage-independent manner, and normal cells proliferate in an anchorage-dependent manner.
# as §1, §2, §3, §4, §5
# mouse melanoma B16 cells [6] = assay: In vitro anchorage-dependent growth inhibition test (normal plate), B16; assay type: cell-based; settings: normal plate, 0, 0.16, 0.4, 8 nmol, 7 days, FIG. 2A
# Text: as §8, §1, §2, §3, §4, §5
# [7] = test system: human colorectal cancer-derived COLO 205 cells; assay: In vitro anchorage-independent growth inhibition test (ULAS plate), COLO 205; assay type: cell-based; settings: ULAS plate, 0, 0.16, 0.4, 8 nmol, 7 days, FIG. 2B
# Text: as §8, §1, §2, §3, §4, §5
# mouse melanoma B16 cells [8] = assay: In vitro anchorage-independent growth inhibition test (ULAS plate), B16; assay type: cell-based; settings: ULAS plate, 0, 0.16, 0.4, 8 nmol, 7 days, FIG. 2A
# Text: as §8, §1, §2, §3, §4, §5
# T1 sequence (O14964 whole entry): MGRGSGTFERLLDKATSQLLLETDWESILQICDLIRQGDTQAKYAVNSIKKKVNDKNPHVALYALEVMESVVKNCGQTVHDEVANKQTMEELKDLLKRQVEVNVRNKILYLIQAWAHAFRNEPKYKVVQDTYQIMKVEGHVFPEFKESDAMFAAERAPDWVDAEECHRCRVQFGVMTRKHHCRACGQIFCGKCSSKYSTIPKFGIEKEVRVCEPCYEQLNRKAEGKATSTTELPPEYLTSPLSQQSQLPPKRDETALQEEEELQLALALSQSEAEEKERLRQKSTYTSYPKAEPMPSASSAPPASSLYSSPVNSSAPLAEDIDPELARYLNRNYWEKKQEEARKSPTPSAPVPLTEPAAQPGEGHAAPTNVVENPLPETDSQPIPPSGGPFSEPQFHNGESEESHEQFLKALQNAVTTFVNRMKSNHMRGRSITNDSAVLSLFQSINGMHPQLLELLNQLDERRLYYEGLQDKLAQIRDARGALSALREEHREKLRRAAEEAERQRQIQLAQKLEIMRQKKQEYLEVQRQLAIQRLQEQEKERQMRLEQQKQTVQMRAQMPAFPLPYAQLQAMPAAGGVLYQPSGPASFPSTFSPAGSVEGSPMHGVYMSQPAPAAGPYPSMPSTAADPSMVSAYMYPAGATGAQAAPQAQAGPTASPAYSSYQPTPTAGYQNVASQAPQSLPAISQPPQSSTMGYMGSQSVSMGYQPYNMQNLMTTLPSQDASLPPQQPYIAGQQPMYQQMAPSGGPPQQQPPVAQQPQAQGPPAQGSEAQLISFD
"interaction with HGS, dissociation rate constant (Kd) as index [3]","interaction with STAM, dissociation rate constant (Kd) as index [4]",Sequence,experimental lung metastasizing ability of mouse melanoma B16 cells (number of lung tumor colonies) (mouse melanoma B16 cells [1]),"tumor growth inhibitory effect compared with OP12-462, OP10-507 and OP10-527 (COLO 205 cells)",tumor growth of COLO 205 cells (tumor volume) (COLO 205 cells),anchorage-dependent growth activity [5],anchorage-dependent growth activity (mouse melanoma B16 cells [6]),anchorage-independent growth activity [7],anchorage-independent growth activity (mouse melanoma B16 cells [8]),other results
,,ERRLYYEGAQDK [OP12-462-A9],remarkably inhibited,,,,,,,
,,ERALYYEGLQDK [OP12-462-A3],remarkably inhibited,,,,,,,in vitro anchorage-independent growth [2]: equally to or more than OP12-462
,,"ALSALREEHR [OP10-7, conventional HGS/C constituent oligopeptide]",,remarkably lower,a tumor growth inhibitory effect was observed,,,,,
,,"EYLEVQRQLA [OP10-11, conventional HGS/C constituent oligopeptide]",,remarkably lower,a tumor growth inhibitory effect was observed,,,,,
strong interaction,strong interaction,RRLYYEGLQD [OP10-463],,,,,,,,
strong interaction,strong interaction,QIQLAQKLEI [OP10-507],,,statistically significantly inhibited,did not inhibit at all or hardly inhibited,did not inhibit at all or hardly inhibited,strongly inhibited,strongly inhibited,
,,ERRAYYEGLQDK [OP12-462-A4],remarkably inhibited,,,,,,,
strong interaction,strong interaction,VQRQLAIQRL [OP10-527],,,statistically significantly inhibited,did not inhibit at all or hardly inhibited,did not inhibit at all or hardly inhibited,strongly inhibited,strongly inhibited,
,,"KLEIMRQKKQ [OP10-10, conventional HGS/C constituent oligopeptide]",,remarkably lower,a tumor growth inhibitory effect was observed,,,,,
enhanced interaction,enhanced interaction,ERRLYYEGLQDK [OP12-462],remarkably inhibited,,statistically significantly inhibited,did not inhibit at all or hardly inhibited,did not inhibit at all or hardly inhibited,strongly inhibited,strongly inhibited,
